Results from patent US12599601B2, “Antifungal composition containing carbazole compound as active ingredient” (KOREA UNIVERSITY RESEARCH AND BUSINESS FOUNDATION, priority 2019, dated 2026).
In brackets after ≈: the same amount, converted by molar mass. Several values for one entry are separate records, joined by “and”; a condition that tells them apart may be missing. Identical values can stand only once. Like-named read-outs stand apart in the source and are kept apart here.

Tests used:
Candida albicans = assay: Inhibition of Candida growth, CLSI M27-A2 broth microdilution (absorbance, MIC); type: cell-based; conditions: for MIC: Candida, Table 2; for absorbance of the Candida strain: 37° C., 24 hours, replicate wells
Protocol: An inhibitory effect on Candida growth was evaluated using the CLSI M27 method, which is known as a standard method for antifungal susceptibility testing. The evaluation was performed using the broth microdilution method according to the guidelines of CLSI M27-A2. As medium, 10.4 g of RPMI-MOPS, which is RPMI-1640 medium (Gibco, Gaithersburg, MD, USA) supplemented with L-glutamine, was dissolved in 900 mL of distilled water, and then 34.53 g of 0.165 M 3-N-morpholinopropanesulfonic acid MOPS) buffer was dissolved therein to reach a final volume of 1,000 mL, followed by pH adjustment to 7.0. Then, the solution was filtered through a 0.2 μm filter, thus preparing a medium.
The carbazole compound was dissolved in triple distilled water or dimethyl sulfoxide (DMSO) (Sigma) to a concentration of 20 mg/mL.
A Candida strain was incubated in yeast extract peptone dextrose (YPED) for 16 hours at 30° C., and adjusted to 1.0 turbidity (measured by a spectrophotometer at 600 nm) so that the fungal concentration was about 2.0×10^7 CFU/mL. The fungal solution was washed with triple distilled water, and then diluted again with RPMI-MOPS medium, and 100 μL of the fungal solution was dispensed into each of well Nos. 1 to 10 of a 96-well microplate (final cell concentration: 2.0×10^4 CFU/mL). In addition, 100 μL of the fungal solution was dispensed into well No. 11 (a growth control well), and only 100 μL of RPMI-MOPS medium was dispensed into well No. 12 (a medium control well). After completion of fungal inoculation, the microplate was incubated at 37° C. for 24 hours.
For evaluation of the results, data were obtained by measuring the absorbance using a microplate spectrophotometer to prevent errors by the inspector.
In the data, the concentration at which growth was inhibited based on the medium control well was determined as MIC (minimum inhibitory concentration), and the results are shown in Table 2 below and FIG. 1.

S. cerevisiae = assay: MIC test against budding yeast, same manner as Example 1-1; type: cell-based
Candida SC5314 [1] = assay: Survival of candidiasis mouse models, compounds in drinking water; type: in vivo; conditions: Balb/C mice infected by tail vein; drinking water with molecule B 16 μg/ml or molecule C 32 μg/ml daily; monitored 2 weeks; control 0% within 9 days
Excerpt: (§1) For Candida infection, SC5314, a wild-type strain, was used, and 6-week-old Balb/C female mice were used. The mice were divided into two groups, each consisting of 5 mice, and the survival rate thereof was monitored.
The control group of the experiment using drinking water was provided with normal drinking water daily after Candida infection performed by tail vein injection as described in Example 3-1, and the experimental groups were provided daily with drinking water treated with molecule B at a concentration of 16 μg/ml or with drinking water treated with molecule C at a concentration of 32 μg/ml. The survival rates of the mice were monitored daily for 2 weeks.

HeLa cells = conditions: 16 hours treatment, MTS, tested 1 to 64 μg/ml
Protocol: The cytotoxicity of the carbazole compound to mammalian cells was evaluated using the human cervical cancer cell line HeLa.
Cells were seeded into a 96-well microplate at a density of 1.0×10^4 cells per well, and cultured in 10% FBS-containing DMEM for 24 hours at 37° C. Then, the medium was removed, each well was washed once with PBS and then treated with the synthesized compound diluted in DMEM serially from a concentration of 64 μg/ml to a concentration of 1 μg/ml. 16 hours after treatment with the compound, cytotoxicity was measured using MTS.

A. fumigatus = assay: MIC test against A. fumigatus, same manner as Example 1-1; type: cell-based
Candida SC5314 [2] = assay: Extent of kidney infection in Candida-infected mice; type: in vivo; conditions: Candida infection by tail vein injection; treated as in Example 3-1
Protocol: as §1
5.0×10^5 Candida cells were diluted in 200 μl of PBS and mice were infected with the dilution by tail vein injection. From day 1 after infection, the control group was inoculated with 200 μl of PBS by tail vein injection, the experimental groups were weighed and treated with molecule B (diluted in 100 μl of PBS) in an amount of 8 mg/kg by tail vein injection or treated with molecule C (diluted in 100 μl of PBS) in an amount of 16 mg/kg by tail vein injection.
After Candida infection performed by tail vein injection as described in Example 3-1, the mice showing the following conditions based on humane euthanasia standards were euthanized using CO2, and the kidneys were collected therefrom and the extents of infection thereof were compared: inability to eat food or drink water; abnormal breathing; dull and stiff hair; reduced movement; or bent posture or body tremor.

[3] = Candida albicans, read-out: MIC

C(=C\c1ccccc1)/CN1CCN(CCCCCn2c3ccccc3c3ccccc32)CC1 [Molecule A]
MIC (Candida albicans; [3]): 32 µg/mL (≈ 73.1 µM)

Nc1ccc(CCCN2CCN(CCCCn3c4ccccc4c4cc(Br)ccc43)CC2)cc1 [Molecule B]
MIC against budding yeast S. cerevisiae (S. cerevisiae): 4 µg/mL (≈ 7.7 µM)
survival rate (Candida SC5314 [1]): 100%
MIC against Candida (Candida albicans): 8 µg/mL (≈ 15.4 µM)
absorbance of the Candida strain (Candida albicans; 0.125 μg/ml compound): 0.209 and 0.229 and 0.206
absorbance of the Candida strain (Candida albicans; 0.25 μg/ml compound): 0.199 and 0.201 and 0.212
absorbance of the Candida strain (Candida albicans; 0.5 μg/ml compound): 0.198 and 0.199 and 0.218
absorbance of the Candida strain (Candida albicans; 1 μg/ml compound): 0.224 and 0.228 and 0.208
absorbance of the Candida strain (Candida albicans; 2 μg/ml compound): 0.143 (2×) and 0.152
absorbance of the Candida strain (Candida albicans; 4 μg/ml compound): 0.137 and 0.132 and 0.135
absorbance of the Candida strain (Candida albicans; 8 μg/ml compound): 0.041 (2×) and 0.034
absorbance of the Candida strain (Candida albicans; 16 μg/ml compound): 0.042 (2×) and 0.036
absorbance of the Candida strain (Candida albicans; 32 μg/ml compound): 0.047 and 0.045 and 0.04
absorbance of the Candida strain (Candida albicans; 64 μg/ml compound): 0.043 and 0.044 and 0.036
MIC (Candida albicans): 8 µg/mL (≈ 15.4 µM)
concentration up to which no toxicity to mammalian cells was shown (HeLa cells): ≤ 16000 ng/mL
MIC against A. fumigatus (A. fumigatus): 64 µg/mL (≈ 123 µM)
extent of kidney infection compared to control mice (Candida SC5314 [2]): very low extent of kidney infection

Nc1ccc(CCCN2CCN(CCCCn3c4ccccc4c4ccccc43)CC2)cc1 [Molecule C]
MIC against budding yeast S. cerevisiae (S. cerevisiae): 4 µg/mL (≈ 9.08 µM)
survival rate (Candida SC5314 [1]): 80%
MIC against Candida (Candida albicans): 16 µg/mL (≈ 36.3 µM)
absorbance of the Candida strain (Candida albicans; 0.125 μg/ml compound): 0.168 and 0.156 and 0.17
absorbance of the Candida strain (Candida albicans; 0.25 μg/ml compound): 0.189 and 0.193 and 0.162
absorbance of the Candida strain (Candida albicans; 0.5 μg/ml compound): 0.182 and 0.25 and 0.199
absorbance of the Candida strain (Candida albicans; 1 μg/ml compound): 0.196 and 0.193 and 0.194
absorbance of the Candida strain (Candida albicans; 2 μg/ml compound): 0.19 and 0.198 and 0.188
absorbance of the Candida strain (Candida albicans; 4 μg/ml compound): 0.194 and 0.24 and 0.195
absorbance of the Candida strain (Candida albicans; 8 μg/ml compound): 0.122 and 0.136 and 0.124
absorbance of the Candida strain (Candida albicans; 16 μg/ml compound): 0.044 and 0.04 and 0.038
absorbance of the Candida strain (Candida albicans; 32 μg/ml compound): 0.043 and 0.039 (2×)
absorbance of the Candida strain (Candida albicans; 64 μg/ml compound): 0.044 and 0.04 and 0.039
MIC (Candida albicans): 16 µg/mL (≈ 36.3 µM)
concentration up to which no toxicity to mammalian cells was shown (HeLa cells): ≤ 32000 ng/mL
MIC against A. fumigatus (A. fumigatus): 64 µg/mL (≈ 145 µM)
extent of kidney infection compared to control mice (Candida SC5314 [2]): very low extent of kidney infection

CN(C/C=C/c1ccccc1)CCCCn1c2ccccc2c2ccccc21 [Molecule D]
MIC (Candida albicans; [3]): 16 µg/mL (≈ 43.4 µM)

Nc1cccc(CCCN2CCN(CCCCn3c4ccccc4c4ccccc43)CC2)c1 [Molecule E]
MIC (Candida albicans; [3]): 32 µg/mL (≈ 72.6 µM)

Nc1ccc(CCCN2CCN(CCCCN(c3ccccc3)c3ccccc3)CC2)cc1 [Molecule F]
MIC (Candida albicans; [3]): 32 µg/mL (≈ 72.3 µM)

Nc1ccc(CCCN2CCN(CCCCn3c4ccccc4c4cc([N+](=O)[O-])ccc43)CC2)cc1 [Molecule G]
MIC (Candida albicans): 16 µg/mL (≈ 32.9 µM)

Nc1ccc(CCCCN2CCN(CCCCn3c4ccccc4c4ccccc43)CC2)cc1 [Molecule H]
MIC (Candida albicans; [3]): 32 µg/mL (≈ 70.4 µM)

Nc1ccc(CCCC2CCN(CCCCn3c4ccccc4c4ccccc43)CC2)cc1 [Molecule I]
MIC (Candida albicans; [3]): 32 µg/mL (≈ 72.8 µM)

Nc1ccc(CCCN2CCN(CCCCn3c4ccccc4c4cccc(Br)c43)CC2)cc1 [Molecule J]
MIC (Candida albicans): 32 µg/mL (≈ 61.6 µM)
